Measured values reported in patent US8633335B2, “Retinoid prodrug compound” (Research Founation Itsuu Laboratory, priority 2007, dated 2014).

Compared with `C[C@H](OC(=O)c1ccc(C(=O)Nc2cc([Si](C)(C)C)cc([Si](C)(C)C)c2)cc1)C(=O)O`, `CC1(C)CCC(C)(C)c2cc(NC(=O)c3ccc(/C=C/C(=O)O)cc3)ccc21` [Example 24, 4-[(5,6,7,8-Tetrahydro-5,5,8,8-tetramethyl-2-naphthyl)carbamoyl]cinnamic acid] is higher in melting point: 198 to 200 °C for the first, 226 to 227 °C for the second.

`CC1(C)CCC(C)(C)c2cc(NC(=O)c3ccc(C=O)cc3)ccc21` [Example 23, 4-Formyl-N-(5,6,7,8-tetrahydro-5,5,8,8-tetramethyl-2-naphthyl)benzamide] gave a melting point of 185.5 to 186.5 °C.
